Here are results for 21 molecules from EP1207886B1, “SPHINGOMYELINASE INHIBITORS AS AGENTS WITH ANTIAPOPTOTIC AND ANTISEPTIC ACTION” (Biofrontera Pharmaceuticals GmbH, priority 1999, dated 2000).

What all share (assay type): cell-based, Menschliche
Assay [1] concerns Mφ. Briefly: Cell culture and apoptosis test (counting YOPRO-1-stained apoptotic cells). Conditions: differentiated Mφ pretreated 30 min with compound, then mmLDL or TNF α (3 ng/ml); YOPRO-1 count after four hours; read-out: Apoptose (IC-50). The text has this:
LDL wurde von gesunden, freiwilligen Testpersonen durch sequentielle Flotation in einer Ultrazentrifuge bei vorbestimmten Dichten erhalten, wie in Havel et al. (J. Clin. Invest. 34, 3145 (1955)) bzw. Deigner et al. (Arzneim.-Forsch./Drug Res. 44, 956, (1994)) beschrieben. Für den Apoptose-Test wurde LDL durch Dialyse gegen Tris-HCl-Puffer, der 20 µMol FeCl3 enthielt, für 48 Stunden minimal modifiziert (mmLDL), wie von Watson et al. (J. Clin. Invest. 95, 774 (1995) beschrieben.
Menschliche, mononucleäre, periphere Blutzellen aus venösem Blut wurden isoliert, gezüchtet und, wie in Kinscherf et al. (The FASEB J. 11, 1317 (1997); The FASEB J. 12, 461 (1998)) beschrieben, bis zum Differenzieren zu Mφ belassen. Differenzierte Mφ wurden mit Lipoproteinmangelserum (P>1,21, durch Ultrazentrifugieren von fötalem Kälberserum hergestellt, wie in Havel et al. beschrieben) für 24 Stunden vor der Testdurchführung gezüchtet, mit der entsprechenden Verbindung für 30 Minuten bei den angeführten Konzentrationen vorbehandelt und anschließlich mLDL oder rekombinantem TNF α (3 ng/ml) in dem gleichen Medium ausgesetzt. Die Bestimmung der Apoptose wurde durch Zählen von YOPRO-1-gefärbten apoptotischen Zellen, wie in Idziorek et al. (J. Immunol. Methods 185, 249 (1995)) beschrieben, nach vier Stunden durchgeführt.

The next assay addresses T1, sauren Sphingomyelinase (Homo sapiens, UniProt P17405).
T1 construct: endogenous in cells; host or cells: human macrophages (treated with compound, then oxidised LDL; lysed, supernatant assayed)
T1 sequence (P17405 47-631): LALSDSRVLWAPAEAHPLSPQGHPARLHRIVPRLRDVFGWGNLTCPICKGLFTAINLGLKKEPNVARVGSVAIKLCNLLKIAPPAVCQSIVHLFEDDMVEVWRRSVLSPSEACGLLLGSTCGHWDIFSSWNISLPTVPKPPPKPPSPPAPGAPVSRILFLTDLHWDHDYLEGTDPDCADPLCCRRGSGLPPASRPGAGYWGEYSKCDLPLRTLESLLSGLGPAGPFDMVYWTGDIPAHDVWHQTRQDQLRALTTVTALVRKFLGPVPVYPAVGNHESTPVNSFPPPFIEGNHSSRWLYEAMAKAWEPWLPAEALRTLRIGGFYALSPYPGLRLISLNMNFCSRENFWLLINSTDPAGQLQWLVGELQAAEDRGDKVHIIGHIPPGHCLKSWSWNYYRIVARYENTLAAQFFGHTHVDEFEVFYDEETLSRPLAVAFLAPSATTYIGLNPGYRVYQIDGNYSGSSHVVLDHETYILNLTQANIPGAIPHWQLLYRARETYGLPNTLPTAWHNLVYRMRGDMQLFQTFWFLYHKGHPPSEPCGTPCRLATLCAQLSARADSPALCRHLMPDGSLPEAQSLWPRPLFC
The assay can be described thus: SMase inhibition in cells (activity in cell lysates, BODIPY-FL-C5-sphingomyelin, HPLC). Conditions: for IC50: human macrophages pretreated 30 min with compound, then 2 h oxidised LDL (27 µg/ml), lysate activity at pH 5,0, read-out: Hemmung der sauren Sphingomyelinase (Zellen) (IC-50).

For the next assay, the system named is aSMase. The assay can be described thus: RT-PCR of aSMase expression in Mφ. Conditions: for mmLDL- oder Ceramid-induzierte Enzyminduktion: Mφ. The protocol:
Fig. 5 zeigt die RT-PCR von aSMase in Mφ. Es zeigt sich eine Expression von aSMase (687 bp) nach Inkubation (4 h) von Mφ mit steigenden mmLDL-Konzentrationen.
(§1) Fig. 6 zeigt die Wirkung einer Vorbehandlung von Mφ mit einer Zusammensetzung die [3-(Carbazol-9-yl)-N-propyl]-[2-(4-methoxyphenyl)-ethyl]-methylamin (V6) enthält (2 µM, 30 min), auf die aSMase-Expression und die Apoptose in Mφ (Prozentanteil von apoptotischen Mφ, bestimmt durch YOPRO-1-Färbung nach Inkubation mit Medium oder C6-Ceramid (10 µM) mit oder ohne Vorbehandlung mit der Verbindung V6; Daten sind als Mittelwert ± SEM von drei Experimenten angegeben. *, P ≤ 0,05 vs. Kontrolle oder #, P ≤ 0,05 vs. mit C6-Ceramid behandelten Zellen (120 min)).
(§2) Menschliche, mononucleäre, periphere Blutzellen aus venösem Blut wurden mittels Ficoll-Paque (Sigma, Deisenhofen, BR Deutschland) Dichtegradientenzentrifugierung isoliert. Mφ wurden mmLDL (27 µg/ml), C6-Ceramid (10 µM) bzw. H2O2 (30 µM) unterworfen. Apoptotische Zellen wurden mittels YOPRO-1-Färbung (s. Idziorek et al, J. Immunol. Methods, 185, 1995, 249-258) und/oder mittels TUNEL-Technik (Quantum Appligene, Heidelberg, BR Deutschland) identifiziert. Die Bestimmung der Apoptose (Prozentanteil apoptotischer Zellen) wurde durch Zählen von YOPRO-1-gefärbten apoptotischen Zellen unter Verwendung eines Mikroskops, ausgestattet mit einer Quecksilberlampe und einer Fluoreszenzeinheit in Kombination mit einem Computer-unterstützten Morphometriesystem, quantifiziert.
Für die Amplifizierung der aSMase waren die Primer und die Bedingungen wie folgt: 5'-[…]-3' (vorwärts) und 5'-[…]-3', 94°C, 60°C, 72°C, jeweils 1 min, 40 Zyklen (Sequenzanalyse des gereinigten PCR-Produkts durch das Deutsche Krebsforschungszentrum, Heidelberg, BR Deutschland, bestätigte die Amplifizierung des erwarteten aSMase-Fragments).

The test system of assay [2] is Mφ. Briefly: Apoptosis in Mφ induced by C6-ceramide or mmLDL (YOPRO-1 staining / TUNEL). Conditions: for programmierten Zelltod in Mφ: mmLDL or ceramide. As to the method:
as §1, §2

The subject of another assay is Ceramid. Briefly: Ceramide concentration in cells (diacylglycerol-kinase phosphorylation). Conditions: Mφ, mmLDL or ceramide. The text has this: Die Ceramidkonzentrationen in den Zellen wurden nach Diacylglycerolkatalysierter Phosphorylierung, wie in Kinscherf et al. (FEBS, 405, 55 (1997)) und Dressler et al. (J. Biol. Chem. 265, 14917 (1990)) beschrieben, bestimmt.
Figur 1 zeigt in einem Diagramm die Phospho-Ceramid-Konzentration (cpm/spot) nach ox. LDL-Stimulierung zum einen ohne (ox) und zum anderen unter Zugabe entsprechender Verbindungen mit der allgemeinen Formel (I), die in den erfindungsgemäßen pharmazeutischen Zusammensetzungen enthalten sein können, nämlich [2-(3,4-Dimethoxyphenyl)-ethyl]-[3-(2-chlorphenothiazin-10-yl)-N-propyl]-methylamin (V3) und [3-(Carbazol-9-yl)-N-propyl]-[2-(4-methoxyphenyl)-ethyl]methylamin (V6). Ferner ist auch die Phospho-Ceramid-Konzentration in Folge der Stimulation durch TNF angegeben.

Procedure for sauren Sphingomyelinase: Menschliche Makrophagen wurden mit entsprechenden, in den erfindungsgemäßen Zusammensetzungen enthaltenen Verbindungen für 30 Minuten und anschließend zwei Stunden mit oxidiertem LDL (27 µg/ml) vorbehandelt. Anschließend wurde das Medium entfärbt, die Zellen mit vorgekühltem (4°C) PBS gewaschen und 15 Minuten mit Lysepuffer (NaAc, 250 mMol, pH 5,0, TritonX-100 0,2%) bei 4°C behandelt und zentrifugiert (18.000 g). Die Überstände (5 µl) wurden mit ARB-Puffer (NaAc, 250 mMol, pH 5,0) unter Erhalten einer Proteinkonzentration von 80 µg/ml verdünnt, 45 Minuten mit BODIPY®-FL-C5-sphingomyelin (8 nM) bei 37°C inkubiert. Anschließend wurden 150 µl Methanol (interner Standard: C5-BODIPY®-Säure) zugegeben. Die Proben wurden einer HPLC-Analyse (50% MeOH/10% Tris-HCl, pH 7,5, 10 mMol, 2 ml/min, E. Merck Lichrospher 125-4, 100-5 µMol RP-18, Fluoreszenzdetektion 503Ex/512Em) unterworfen.

Take `COc1ccc(CCN(C)CCCN2c3ccccc3Sc3ccc(Cl)cc32)cc1` [V4, [2-(4-Methoxyphenyl)-ethyl]-[3-(2-chlorphenothiazin-10-yl)-N-propyl]-methylamin]: the IC50 in the assay with Mφ [1] is 5 µM.

Regarding `COc1ccc(CCN(C)CCC=C2c3ccccc3CCc3ccccc32)cc1OC` [V38, [3-(10,11-Dihydro-dibenzo[a,d]cyclohepten-5-yliden)-propyl]-[2-(3,4-dimethoxyphenyl)-ethyl]methylamin], the IC50 with Mφ [1] is 6 µM.

As for `COc1ccc(CCN(C)C(F)(F)C(F)(F)C(F)(F)C(F)(F)n2c3ccccc3c3ccccc32)cc1` [V32, (4-Carbazol-9-yl-1,1,2,2,3,3,4,4-octafluorbutyl)-[2-(4-methoxyphenyl)-ethyl]-methylamin], the IC50 in the assay with Mφ [1] amounted to 18 µM.

For the molecule `COc1ccc(Cn2c(=O)c3ccccc3n(Cc3ccc(OC)cc3)c2=O)cc1` [1,3-Bis-(4-methoxybenzyl)-1H-chinazolin-2,4-dion], the IC50 in the assay on Mφ [1] was found to be 0.5 µM.

For `COc1ccc(CCN2C(C)CN(CCCN3c4ccccc4Oc4ccccc43)CC2C)cc1` (stereo not drawn) [V36, 10-(3-{4-[2-(4-Methoxyphenyl)-ethyl]-3,5-dimethylpiperazin-1-yl}-propyl)-10H-phenoxazin], the IC50 in the assay with Mφ [1] was 1 µM.

For `COc1ccc(CCN(C)CCCN2c3ccccc3Oc3ccccc32)cc1OC` [V37, [2-(3,4-Dimethoxyphenyl)-ethyl]-methyl-(phenoxazin-10-yl-propyl)amin], in the assay with Mφ [1], the IC50 turned out to be 2.5 µM.

Regarding `COc1ccc(Cn2c3ccccc3c3ccccc32)cc1` [9-(4-Methoxybenzyl-9H-carbazol)], in the assay with Mφ [1], the IC50 was found to be 1 µM.

Take `COc1ccc(CCN(C)CCN2c3ccccc3CCc3ccccc32)cc1` [V16, [2-(10,11-Dihydro-dibenzo[b,f]azepin-5-yl)-N-ethyl]-[2-(4-methoxyphenyl)-ethyl]methylamin]: the IC50 at sauren Sphingomyelinase was determined as 16 µM.

With `COc1ccc(CCN(C)CCN2c3ccccc3CCc3ccccc32)cc1OC` [V15, [2-(10,11-Dihydro-dibenzo[b,f]azepin-5-yl)-N-ethyl]-[2-(3,4-dimethoxyphenyl)-ethyl]methylamin], the IC50 at sauren Sphingomyelinase amounted to 14 µM.

Take `COc1ccc(CCN(C)CCCN2c3ccccc3Sc3ccc(Cl)cc32)cc1OC` [V3, [2-(3,4-Dimethoxyphenyl)-ethyl]-[3-(2-chlorphenothiazin-10-yl)-N-propyl]-methylamin]: the IC50 worked out at 2 µM with Mφ [1] and 6 µM on sauren Sphingomyelinase. The “mmLDL- oder Ceramid-induzierte Enzyminduktion” value in the assay on aSMase is recorded as “inhibieren”. For the same molecule, the “programmierten Zelltod in Mφ” value in the assay with Mφ [2] was “vermindert”. In addition, the “Stimulierung der Ceramidbildung” value with Ceramid is recorded as “inhibieren”.

In the case of `COc1ccc(CCN(C)CCCN(c2ccccc2)c2ccccc2)cc1` [V34, N-[2-(4-Methoxyphenyl)-ethyl]-N-methyl-N',N'-diphenylpropan-1,3-diamin], the IC50 with Mφ [1] worked out at 3 µM.

For `COc1ccc(CCN(C)CCCn2c3ccccc3c3ccccc32)cc1` [V6, [3-(Carbazol-9-yl)-N-propyl]-[2-(4-methoxyphenyl)-ethyl]methylamin], the “Aktivierung des Enzyms” value at sauren Sphingomyelinase (ceramide-treated Mφ, measured in cell lysates) was “verhinderte”. Also, the IC50 on sauren Sphingomyelinase was 9 µM. For the same molecule, the “durch mmLDL (27 µg/ml) initiierten Anstieg der aSMase-Aktivität in Zelllysaten” value at sauren Sphingomyelinase (pretreatment of Mφ, mmLDL 27 µg/ml, basal activity 2,18 nmol/h x mg) was “vollständig verhindert”. For the same molecule, the “mmLDL- oder Ceramid-induzierte Enzyminduktion” value in the assay on aSMase is “inhibieren”. Moreover, the “Ceramid-vermittelte aSMase-Transkription” value in the assay with aSMase (pretreatment of Mφ (2 µM, 30 min), C6-Ceramid (10 µM)) was “verhinderte”. Further, the “programmierten Zelltod in Mφ” value in the assay on Mφ [2] is on record as “vermindert”. For the same molecule, the “Induktion von Apoptose” value in the assay on Mφ [2] (pretreatment of Mφ (2 µM, 30 min), C6-Ceramid (10 µM), YOPRO-1) is “verhinderte”. In addition, in the assay with Ceramid, the “Stimulierung der Ceramidbildung” value was “inhibieren”.

On to `COc1ccc(CCN2CCN(CCn3c4ccccc4c4ccccc43)CC2)cc1` [V18, N-[2-(Carbazol-9-yl)-N-ethyl]-N'-[2-(4-methoxyphenyl)-ethyl]piperazin], for which, at sauren Sphingomyelinase, the IC50 amounted to 33 µM.

As to `COc1ccc(CCN(C)CCC=C2c3ccccc3CCc3ccccc32)cc1` [V31, [3-(10,11-Dihydro-dibenzo[a,d]cyclohepten-5-yliden)-propyl]-[2-(4-methoxyphenyl)-ethyl]methylamin], the IC50 came out at 1.5 µM in the assay on Mφ [1] and 20 µM at sauren Sphingomyelinase.

In the case of `COc1ccc(CCN2CCCN(C3c4ccccc4CCc4ccccc43)C2)cc1OC` [V41, N-(10,11-Dihydro-5H-dibenzo[a,d]cyclohepten-5-yl)-N'-[2-(3,4-dimethoxyphenyl)-ethyl]-hexahydropyrimidin], the IC50 in the assay with Mφ [1] worked out at 7 µM.

`COc1ccc(CCNCCCNC2c3ccccc3CCc3ccccc32)cc1` [V22, N-(5H-Dibenzo[a,d]cycloheptan-5-yl)-N'-[2-(4-methoxyphenyl)-ethyl]-propylendiamin]: the IC50 on sauren Sphingomyelinase amounted to 10 µM.

For `COc1ccc(CCN(C)CCCN(c2ccccc2)c2ccccc2)cc1OC` [V35, N-[2-(3,4-Dimethoxyphenyl)-ethyl]-N-methyl-N',N'-diphenylpropan-1,3-diamin], the IC50 with Mφ [1] was determined as 6 µM.

On to “10-(3-{4-[2-(3,-Dimethoxyphenyl)-ethyl]-3,5-dimethylpiperazin-1-yl}-propyl)-9H-carbazol [V42]”, for which the IC50 in the assay with Mφ [1] was determined as 4 µM.

`COc1ccc(CCN(C)CCCn2c3ccccc3c3ccccc32)cc1OC` [V5, [3-(Carbazol-9-yl)-N-propyl]-[2-(3,4-dimethoxyphenyl)-ethyl]methylamin]: the IC50 on sauren Sphingomyelinase came out at 8 µM.

In the case of `COc1ccc(Cn2c(=O)[nH]c3ccccc3c2=O)cc1` [3-(4-Methoxybenzyl)-1H-chinazolin-2,4-dion], the IC50 in the assay on Mφ [1] is 3 µM.

For the molecule `COc1ccc(CCN(C)CCn2c3ccccc3c3ccccc32)cc1` [V23, [2-(Carbazol-9-yl)-N-ethyl]-[2-(4-methoxyphenyl)-ethyl]methylamin], the IC50 at sauren Sphingomyelinase was found to be 8 µM.
